{"source": "patent US12419307B2", "about": "“Mixtures comprising indazole pesticides” (FMC Corporation, priority 2019, dated 2025)", "assay_type_in_all_cases": "in vivo", "key": {"[1]": {"system": "diamondback moth (Plutella xylostella L.)", "experiment": "Test E: diamondback moth control through ingestion only, sprayed cabbage leaf tissue (Dipel), mortality after 4 days", "conditions": "Table 6c, read-out: % Mortality (obs)", "method": "(§1) The pest control protection afforded by the mixtures or compositions is not limited, however, to these species. The analysis of enhanced activity between the mixtures or compositions was determined using Colby's equation. The average % mortality data for the test compounds alone were inserted into the Colby's equation. If the observed (obs) average % mortality was higher than “p”, the expected (exp) % mortality, the mixture or composition had enhanced effects. If the observed average % mortality was equal to or lower than the expected mortality, the mixture or composition either had no enhanced effect. For bioassays where insect feeding damage was evaluated, enhanced activity is identified when the observed plant damage is less than the expected plant damage rating; ratings ranged between 0 (no damage) and 10 (dead plant) and each value was converted to a % plant protection. 100−(Obs Plant Damage*10)\nFor evaluating control of diamondback moth (Plutella xylostella L.) through ingestion only, the test substance Dipel® (active ingredient Bacillus thuringiensis kurstaki) was formulated by diluting in water and then adding an MSO based adjuvant at 0.1% v/v. Cabbage plants were sprayed with Dipel® to runoff and allowed to dry for three hours. Once dry, plants leaf tissue was excised and one piece was placed into one well in an eight well tray. Test units were maintained in a growth chamber at 24-25° C. and 70% relative humidity."}, "[2]": {"system": "cotton melon aphid (Aphis gossypii Glover)", "experiment": "Test D: cotton melon aphid control on okra plants, insect mortality after 6 days", "conditions": "Aphis gossypii, read-out: % Mortality (obs)", "in_short": "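Okra plants (6–7 days old) pre-infested with 30–40 aphids by cut-leaf transfer were sprayed, three replicates, then held 6 days at 19-21° C and 50-70% RH before mortality scoring. Mixture enhancement was judged against Colby-expected % mortality.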"}, "[3]": {"system": "diamondback moth (Plutella xylostella L.)", "experiment": "Test E: diamondback moth control on mustard plants, contact and/or systemic, plant damage rating after 6 days", "method": "as §1\nFor evaluating control of diamondback moth (Plutella xylostella L.) through contact and/or systemic means, each test unit consisted of a small open container with a 10- to 12-day-old mustard plant inside. Test compounds were formulated and sprayed with 3 replications as described for Test A. After spraying, the test units were allowed to dry for 1 hour before they were infested with 30-50 neonate larvae. A black, screened cap was placed on the top of each container. The test units were held for 6 days in a growth chamber at 24-25° C. and 70% relative humidity. Each test unit was then visually assessed for plant damage and rated 0-10, where 0=undamaged and 10=plant is dead; the results are listed in Tables 6a-b."}}, "note": "Where two headings read alike, the source gives them in different places."}
{"smiles": "O=C(NC1(C(F)F)CC1)c1cccc2nn(-c3cccnc3)cc12", "note": "[Cpd 5, N-[1-(difluoromethyl)cyclopropyl]-2-(3-pyridinyl)-2H-indazole-4-carboxamide]", "values": [{"measurement": "mortality at 50 ppm", "setting": "[1]; 50 ppm", "result": 21, "unit": "%"}, {"measurement": "mortality at 250 ppm", "setting": "[1]; 250 ppm", "result": 25, "unit": "%"}, {"measurement": "mortality at 0.12 ppm", "setting": "[2]; 5 h, Table 5h", "result": 40, "unit": "%"}, {"measurement": "mortality at 0.18 ppm", "setting": "[2]; 5 h, Table 5h", "result": 68.4, "unit": "%"}, {"measurement": "mortality at 0.12 ppm", "setting": "[2]; 120 h, Table 5d", "result": 34, "unit": "%"}, {"measurement": "mortality at 0.18 ppm", "setting": "[2]; 120 h, Table 5d", "result": 62.7, "unit": "%"}, {"measurement": "mortality at 0.12 ppm", "setting": "[2]; Table 5a", "result": 34, "unit": "%"}, {"measurement": "mortality at 0.18 ppm", "setting": "[2]; Table 5a", "result": 62.7, "unit": "%"}, {"measurement": "mortality at 0.12 ppm", "setting": "[2]; Table 5b", "result": 34, "unit": "%"}, {"measurement": "mortality at 0.18 ppm", "setting": "[2]; Table 5b", "result": 62.7, "unit": "%"}, {"measurement": "mortality at 0.12 ppm", "setting": "[2]; Table 5c", "result": 73.3, "unit": "%"}, {"measurement": "mortality at 0.18 ppm", "setting": "[2]; Table 5c", "result": 6.7, "unit": "%"}, {"measurement": "mortality at 0.12 ppm", "setting": "[2]; Table 5e", "result": 32.2, "unit": "%"}, {"measurement": "mortality at 0.18 ppm", "setting": "[2]; Table 5e", "result": 61.6, "unit": "%"}, {"measurement": "mortality at 0.12 ppm", "setting": "[2]; Table 5f", "result": 44.9, "unit": "%"}, {"measurement": "mortality at 0.18 ppm", "setting": "[2]; Table 5f", "result": 58.9, "unit": "%"}, {"measurement": "mortality at 0.12 ppm", "setting": "[2]; Table 5g", "result": 25.8, "unit": "%"}, {"measurement": "mortality at 0.18 ppm", "setting": "[2]; Table 5g", "result": 44.3, "unit": "%"}, {"measurement": "mortality at 0.12 ppm", "setting": "[2]; Table 5i", "result": 41.6, "unit": "%"}, {"measurement": "mortality at 0.18 ppm", "setting": "[2]; Table 5i", "result": 70.3, "unit": "%"}, {"measurement": "mortality at 0.12 ppm", "setting": "[2]; Table 5j", "result": 41.6, "unit": "%"}, {"measurement": "mortality at 0.18 ppm", "setting": "[2]; Table 5j", "result": 70.3, "unit": "%"}, {"measurement": "mortality at 0.12 ppm", "setting": "[2]; Table 5k", "result": 35.9, "unit": "%"}, {"measurement": "mortality at 0.18 ppm", "setting": "[2]; Table 5k", "result": 67.2, "unit": "%"}, {"measurement": "mortality at 0.12 ppm", "setting": "[2]; Table 5l", "result": 35.9, "unit": "%"}, {"measurement": "mortality at 0.18 ppm", "setting": "[2]; Table 5l", "result": 67.2, "unit": "%"}, {"measurement": "mortality at 0.12 ppm", "setting": "[2]; Table 5m", "result": 37.3, "unit": "%"}, {"measurement": "mortality at 0.18 ppm", "setting": "[2]; Table 5m", "result": 61.7, "unit": "%"}, {"measurement": "mortality at 0.12 ppm", "setting": "[2]; Table 5n", "result": 48.9, "unit": "%"}, {"measurement": "mortality at 0.18 ppm", "setting": "[2]; Table 5n", "result": 77.7, "unit": "%"}, {"measurement": "Plant Protection (obs)", "setting": "[3]; Table 6a, 50 ppm", "result": 0.0}, {"measurement": "Plant Protection (obs)", "setting": "[3]; Table 6a, 250 ppm", "result": 0.0}, {"measurement": "Plant Protection (obs)", "setting": "[3]; Table 6b, 50 ppm", "result": 0.0}, {"measurement": "Plant Protection (obs)", "setting": "[3]; Table 6b, 250 ppm", "result": 0.0}]}
